Assay results published in patent US10377717B2, “Farnesoid X receptor agonists and uses thereof” (Metacrine, Inc., priority 2015, dated 2019).

target: hFXR (Homo sapiens (Human), UniProt Q96RI1); experiment: In Vitro FXR Assay (TK), luciferase reporter in transfected CV-1 cells; format: cell-based; details: TK-ECRE-luc reporter, hFXR/hRXR, 18 hrs, maximum efficacy <25% of Fexaramine control classified as '+'
Procedure: CV-1 cells were seeded at a density of 2,000,000 cells in a T175 flask with DMEM+10% charcoal double-stripped FBS and incubated at 37° C. in 5% CO2 for 18 h (O/N).
After 18 h of incubation, the medium in the T175 flask was changed with fresh DMEM+10% charcoal super-stripped serum. In a polypropylene tube, 2500 μL OptiMEM (Life Technologies, Cat #31985-062) was combined with expression plasmids for hFXR, hRXR, TK-ECRE-luc and pCMX-YFP. The tube was then briefly vortexed and incubated at room temperature for 5 minutes. Transfection reagent (X-tremeGENE HP from Roche, Cat #06 366 236 001) was added to the OptiMEM/plasmid mixture vortexed and incubated at room temperature for 20 minutes. Following incubation, the transfection reagent/DNA mixture complex was added to cells in the T175 flask and the cells were incubated at 37° C. in 5% CO2 for 18 h (O/N).
Compounds were serially diluted in DMSO and added to transfected CV-1 cells. The cells were then incubated for 18 hrs. The next day cells were lysed and examined for luminescence.

Sequence of hFXR (Q96RI1 whole entry): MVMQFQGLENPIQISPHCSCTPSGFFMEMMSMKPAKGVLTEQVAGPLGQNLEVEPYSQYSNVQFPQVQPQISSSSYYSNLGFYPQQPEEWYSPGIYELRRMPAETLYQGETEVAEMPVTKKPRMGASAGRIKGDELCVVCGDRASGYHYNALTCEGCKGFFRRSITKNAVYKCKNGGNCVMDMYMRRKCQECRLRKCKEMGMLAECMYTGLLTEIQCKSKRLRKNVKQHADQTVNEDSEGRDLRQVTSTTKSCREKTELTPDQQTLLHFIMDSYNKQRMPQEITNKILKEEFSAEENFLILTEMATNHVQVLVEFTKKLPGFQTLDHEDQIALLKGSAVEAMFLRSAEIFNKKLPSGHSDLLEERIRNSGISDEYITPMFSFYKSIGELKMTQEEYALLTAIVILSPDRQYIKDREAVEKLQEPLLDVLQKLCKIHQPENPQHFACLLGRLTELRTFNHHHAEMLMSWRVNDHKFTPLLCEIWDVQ
Sequence of hFXR (P19793 whole entry partner): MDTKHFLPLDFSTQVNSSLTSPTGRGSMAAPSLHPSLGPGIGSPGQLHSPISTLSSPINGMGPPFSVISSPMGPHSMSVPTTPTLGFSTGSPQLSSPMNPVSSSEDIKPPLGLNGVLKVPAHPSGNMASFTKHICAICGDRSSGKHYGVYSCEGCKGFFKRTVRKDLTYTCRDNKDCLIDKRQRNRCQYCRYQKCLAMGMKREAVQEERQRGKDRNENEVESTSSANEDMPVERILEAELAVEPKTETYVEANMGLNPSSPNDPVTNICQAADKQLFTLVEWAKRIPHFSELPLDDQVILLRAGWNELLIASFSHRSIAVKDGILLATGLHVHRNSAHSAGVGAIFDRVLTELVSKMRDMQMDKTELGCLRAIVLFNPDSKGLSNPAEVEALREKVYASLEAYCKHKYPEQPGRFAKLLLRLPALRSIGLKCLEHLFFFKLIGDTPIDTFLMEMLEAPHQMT

| SMILES | EC50 |
| --- | --- |
| CCCCC(=O)N(Cc1ccc(-c2ccc(OC)c(C)c2)cc1)c1nccc2cc(C(=O)OC)ccc12 [Compound 81, Methyl 1-(N-((4′-methoxy-3′-methyl-[1,1′-biphenyl]-4-yl)methyl)pentanamido) isoquinoline-6-carboxylate] | ≤ 1000 nM |
| COC(=O)c1ccc2c(N(C[C@H]3CC[C@H](c4ccc(OC)c(C)c4)CC3)C(=O)CC(C)(C)C)nccc2c1 [Compound 96, Methyl 1-(N-((trans-4-(4-methoxy-3-methylphenyl)cyclohexyl)methyl)-3,3-dimethylbutanamido)isoquinoline-6-carboxylate] | ≤ 1000 nM |
| COC(=O)c1ccc2c(N(Cc3ccc(-c4ccc(OC)c(C)c4)cc3)C(=O)CCCO)nccc2c1 [Compound 85, Methyl 1-(4-hydroxy-N-((4′-methoxy-3′-methyl-[1,1′-biphenyl]-4-yl)methyl)butanamido) isoquinoline-6-carboxylate] | ≥ 10000 nM |
| COC(=O)c1ccc2c(N(Cc3ccc(-c4ccc(OC(F)(F)F)c(Cl)c4)cc3)C(=O)CC(C)(C)C)nccc2c1 [Compound 41, Methyl 1-(N-((3′-chloro-4′-(trifluoromethoxy)-[1,1′-biphenyl]-4-yl)methyl)-3,3-dimethylbutanamido)isoquinoline-6-carboxylate] | ≤ 1000 nM |
| COC(=O)c1ccc2c(N(Cc3ccc(-c4ccc(OC)c(C)c4)cc3)C(=O)Cc3ccccc3)nccc2c1 [Compound 75, Methyl 1-(N-((4′-methoxy-3′-methyl-[1,1′-biphenyl]-4-yl)methyl)-2-phenylacetamido)isoquinoline-6-carboxylate] | ≥ 10000 nM |
| COC(=O)c1ccc2c(N(Cc3ccc(-c4ccc(Cl)c(C#N)c4)cc3)C(=O)CC(C)(C)C)nccc2c1 [Compound 32, Methyl 1-(N-((4′-chloro-3′-cyano-[1,1′-biphenyl]-4-yl)methyl)-3,3-dimethylbutanamido)isoquinoline-6-carboxylate] | 1000 to 10000 nM |
| COC(=O)c1ccc2c(N(Cc3ccc(-c4ccc(OC)c(C#N)c4)cc3)C(=O)CC(C)(C)C)nccc2c1 [Compound 24, Methyl 1-(N-((3′-cyano-4′-methoxy-[1,1′-biphenyl]-4-yl)methyl)-3,3-dimethylbutanamido)isoquinoline-6-carboxylate] | ≤ 1000 nM |
| COCCc1ccc(-c2ccc(CN(C(=O)CC(C)(C)C)c3nccc4cc(C(=O)OC)ccc34)cc2)cc1 [Compound 62, Methyl 1-(N-((4′-(2-methoxyethyl)-[1,1′-biphenyl]-4-yl)methyl)-3,3-dimethylbutanamido)isoquinoline-6-carboxylate] | ≤ 1000 nM |
| CCC(C)(C)CC(=O)N(C[C@H]1CC[C@H](c2ccc(OC)c(C)c2)CC1)c1nccc2cc(C(=O)OC(C)C)ccc12 [Compound 88, Isopropyl 1-(N-((trans-4-(4-methoxy-3-methylphenyl)cyclohexyl)methyl)-3,3-dimethylpentanamido)isoquinoline-6-carboxylate] | ≤ 1000 nM |
| COC(=O)c1ccc2c(N(Cc3ccc(-c4ccc(OC)c(C)c4)cc3)C(=O)CC3CC3)nccc2c1 [Compound 80, Methyl 1-(2-cyclopropyl-N-((4′-methoxy-3′-methyl-[1,1′-biphenyl]-4-yl)methyl)acetamido)isoquinoline-6-carboxylate] | ≤ 1000 nM |
| COC(=O)c1ccc2c(N(C[C@H]3CC[C@H](c4ccc(Cl)cc4)CC3)C(=O)CC(C)(C)C)nccc2c1 [Compound 95, Methyl 1-(N-((trans-4-(4-chlorophenyl)cyclohexyl)methyl)-3,3-dimethylbutanamido)isoquinoline-6-carboxylate] | 1000 to 10000 nM |
| COC(=O)c1ccc2c(N(Cc3ccc(-c4ccc5c(c4)OCCO5)cc3)C(=O)CC(C)(C)C)nccc2c1 [Compound 48, Methyl 1-(N-(4-(2,3-dihvdrobenzo[b][1,4]dioxin-6-yl)benzyl)-3,3-dimethylbutanamido)isoquinoline-6-carboxylate] | ≤ 1000 nM |
| COC(=O)c1cc2cccc(N(Cc3ccc(-c4ccc(N(C)C)cc4)cc3)C(=O)C3CCCCC3)c2s1 [Compound 12, Methyl 7-(N-((4′-(dimethylamino)-[1,1′-biphenyl]-4-yl)methyl)cyclohexanecarboxamido) benzo[b]thiophene-2-carboxylate] | 1000 to 10000 nM |
| COc1ccc(-c2ccc(CN(C(=O)CC(C)(C)C)c3nccc4cc(C(=O)OC(C)C)ccc34)cc2)cc1C#N [Compound 68, Isopropyl 1-(N-((3′-cyano-4′-methoxy-[1,1′-biphenyl]-4-yl)methyl)-3,3-dimethylbutanamido) isoquinoline-6-carboxylate] | ≤ 1000 nM |
| COC(=O)c1cc2c(N(Cc3ccc(-c4ccc(N(C)C)cc4)cc3)C(=O)C3CCCCC3)cccc2[nH]1 [Compound 11, Methyl 4-(N-((4′-(dimethylamino)-[1,1′-biphenyl]-4-yl)methyl)cyclohexanecarboxamido)-1H-indole-2-carboxylate] | ≥ 10000 nM |
| COC(=O)c1cc2cccc(N(Cc3ccc(-c4ccc(N(C)C)cc4)cc3)C(=O)C3CCCCC3)c2[nH]1 [Compound 10, Methyl 7-(N-((4′-(dimethylamino)-[1,1′-biphenyl]-4-yl)methyl)cyclohexanecarboxamido)-1H-indole-2-carboxylate] | ≥ 10000 nM |
| CCc1ccc(-c2ccc(CN(C(=O)CC(C)(C)C)c3nccc4cc(C(=O)OC)ccc34)cc2)cc1 [Compound 53, Methyl 1-(N-((4′-ethyl-[1,1′-biphenyl]-4-yl)methyl)-3,3-dimethylbutanamido)isoquinoline-6-carboxylate] | ≤ 1000 nM |
| COC(=O)c1cc(N(Cc2ccc(-c3ccc(N(C)C)cc3)cc2)C(=O)C2CCCCC2)c2ccccc2c1 [Compound 16, Methyl 4-(N-((4′-(dimethylamino)-[1,1′-biphenyl]-4-yl)methyl)cyclohexanecarboxamido)-2-naphthoate] | ≥ 10000 nM |
| COC(=O)c1ccc2c(N(Cc3ccc(-c4ccc5c(c4)OCC5)cc3)C(=O)CC(C)(C)C)nccc2c1 [Compound 47, Methyl 1-(N-(4-(2,3-dihydrobenzofuran-6-yl)benzyl)-3,3-dimethylbutanamido)isoquinoline-6-carboxylate] | ≤ 1000 nM |
| COC(=O)c1ccc2c(N(Cc3ccc(-c4ccc(OCCO)cc4)cc3)C(=O)CC(C)(C)C)nccc2c1 [Compound 60, Methyl 1-(N′-((4′-(2-hydroxyethoxy)-[1,1′-biphenyl]-4-yl)methyl)-3,3-dimethylbutanamido)isoquinoline-6-carboxylate] | 1000 to 10000 nM |
| COC(=O)c1ccc2c(N(Cc3ccc(-c4ccc(C(F)(F)F)nc4)cc3)C(=O)CC(C)(C)C)nccc2c1 [Compound 33, Methyl 1-(3,3-dimethyl-N-(4-(6-(trifluoromethyl)pyridin-3-yl)benzyl)butanamido)isoquinoline-6-carboxylate] | 1000 to 10000 nM |
| COC(=O)c1ccc2c(N(Cc3ccc(-c4ccc(OC)c(C)c4)cc3)C(=O)CC3CCCC3)nccc2c1 [Compound 72, Methyl 1-(2-cyclopentyl-N-((4′-methoxy-3′-methyl-[1,1′-biphenyl]-4-yl)methyl)acetamido)isoquinoline-6-carboxylate] | ≤ 1000 nM |
| COc1ccc(-c2ccc(CN(C(=O)CC(C)(C)C)c3nccc4cc(C(=O)O)ccc34)cc2)cc1C [Compound 101, 1-(N-((4′-methoxy-3′-methyl-[1,1′-biphenyl]-4-yl)methyl)-3,3-dimethylbutanamido) isoquinoline-6-carboxylic acid] | ≥ 10000 nM |
